Test results reported in the supplement of paper PMC10307832.

How the values were obtained:
Assay in all cases: relative viability (nuclei count vs DMSO), 5 days (fraction); higher = more cells survive
CAL-12T = test system: CAL-12T
In short: (§1)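 After 5 days of treatment, lung cancer cells in 1536-well plates were fixed and stained in a single step (final 0.05% Triton X-100, 1% formaldehyde, 1 ug/ml Hoechst) and their nuclei counted on 4× images. Treatment had been applied by pin tool the day after seeding as one drug alone or as a fixed anchor-drug dose with five library-drug doses (not always all listed) in √10 steps. Relative viability is the nuclei count of treated wells divided by that of vehicle wells, and values are medians of duplicate plates.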

NCI-H2023 = test system: NCI-H2023
In short: as §1

BEN = test system: BEN
In short: as §1

NCI-H1915 = test system: NCI-H1915
In short: as §1

NCI-H520 = test system: NCI-H520
In short: as §1

NCI-H2087 = test system: NCI-H2087
In short: as §1

NCI-H596 = test system: NCI-H596
In short: as §1

201T = test system: 201T
In short: as §1

NCI-H460 = test system: NCI-H460
In short: as §1

NCI-H1650 = test system: NCI-H1650
In short: as §1

NCI-H441 = test system: NCI-H441
In short: as §1

A-427 = test system: A-427
In short: as §1

LCLC-97TM1 = test system: LCLC-97TM1
In short: as §1

NCI-H1944 = test system: NCI-H1944
In short: as §1

NCI-H727 = test system: NCI-H727
In short: as §1

PC-3 [JPC-3] = test system: PC-3 [JPC-3]
In short: as §1

H3255 = test system: H3255
In short: as §1

NCI-H1651 = test system: NCI-H1651
In short: as §1

LC-2-ad = test system: LC-2-ad
In short: as §1

Compound: CC(=O)O[C@@]12CO[C@@H]1C[C@H](O)[C@@]1(C)C(=O)[C@H](O)C3=C(C)[C@@H](OC(=O)[C@H](O)[C@@H](NC(=O)OC(C)(C)C)c4ccccc4)C[C@@](O)([C@@H](OC(=O)c4ccccc4)[C@H]21)C3(C)C [Docetaxel] + CC1(C)CCC(c2ccc(Cl)cc2)=C(CN2CCN(c3ccc(C(=O)NS(=O)(=O)c4ccc(N[C@H](CCN5CCOCC5)CSc5ccccc5)c(S(=O)(=O)C(F)(F)F)c4)cc3)CC2)C1 [Navitoclax] (partner 0.5 µM)
- relative viability (CAL-12T; first compound 0.0002 µM): 1.02
- relative viability (CAL-12T; first compound 0.000632 µM): 0.694
- relative viability (CAL-12T; first compound 0.002 µM): 0.178
- relative viability (CAL-12T; first compound 0.02 µM): 0.101
- relative viability (NCI-H2023; first compound 0.0002 µM): 1.01
- relative viability (NCI-H2023; first compound 0.000632 µM): 0.995
- relative viability (NCI-H2023; first compound 0.002 µM): 0.176
- relative viability (NCI-H2023; first compound 0.006325 µM): 0.168
- relative viability (NCI-H2023; first compound 0.02 µM): 0.0908
- relative viability (BEN; first compound 0.0002 µM): 0.0647
- relative viability (BEN; first compound 0.000632 µM): 0.25
- relative viability (BEN; first compound 0.002 µM): 0.0618
- relative viability (BEN; first compound 0.006325 µM): 0.0423
- relative viability (BEN; first compound 0.02 µM): 0.0454
- relative viability (NCI-H1915; first compound 0.0002 µM): 0.789
- relative viability (NCI-H1915; first compound 0.000632 µM): 0.774
- relative viability (NCI-H1915; first compound 0.002 µM): 0.524
- relative viability (NCI-H1915; first compound 0.006325 µM): 0.102
- relative viability (NCI-H1915; first compound 0.02 µM): 0.0504
- relative viability (NCI-H520; first compound 0.0002 µM): 1.07
- relative viability (NCI-H520; first compound 0.000632 µM): 0.86
- relative viability (NCI-H520; first compound 0.002 µM): 0.283
- relative viability (NCI-H520; first compound 0.006325 µM): 0.16
- relative viability (NCI-H520; first compound 0.02 µM): 0.156
- relative viability (NCI-H2087; first compound 0.0002 µM): 0.964
- relative viability (NCI-H2087; first compound 0.000632 µM): 0.446
- relative viability (NCI-H2087; first compound 0.002 µM): 0.276
- relative viability (NCI-H2087; first compound 0.006325 µM): 0.154
- relative viability (NCI-H2087; first compound 0.02 µM): 0.129
- relative viability (NCI-H596; first compound 0.0002 µM): 0.882
- relative viability (NCI-H596; first compound 0.000632 µM): 0.799
- relative viability (NCI-H596; first compound 0.002 µM): 0.565
- relative viability (NCI-H596; first compound 0.006325 µM): 0.477
- relative viability (NCI-H596; first compound 0.02 µM): 0.208
- relative viability (201T; first compound 0.0002 µM): 1.18
- relative viability (201T; first compound 0.000632 µM): 1.21
- relative viability (201T; first compound 0.002 µM): 1.06
- relative viability (201T; first compound 0.006325 µM): 0.507
- relative viability (201T; first compound 0.02 µM): 0.347
- relative viability (NCI-H460; first compound 0.0002 µM): 0.997
- relative viability (NCI-H460; first compound 0.000632 µM): 0.219
- relative viability (NCI-H460; first compound 0.002 µM): 0.0187
- relative viability (NCI-H460; first compound 0.006325 µM): 0.0123
- relative viability (NCI-H460; first compound 0.02 µM): 0.0104
- relative viability (NCI-H1650; first compound 0.0002 µM): 1.13
- relative viability (NCI-H1650; first compound 0.000632 µM): 1.02
- relative viability (NCI-H1650; first compound 0.002 µM): 0.182
- relative viability (NCI-H1650; first compound 0.006325 µM): 0.19
- relative viability (NCI-H1650; first compound 0.02 µM): 0.104
- relative viability (NCI-H441; first compound 0.0002 µM): 0.486
- relative viability (NCI-H441; first compound 0.000632 µM): 0.275
- relative viability (NCI-H441; first compound 0.002 µM): 0.204
- relative viability (NCI-H441; first compound 0.006325 µM): 0.23
- relative viability (NCI-H441; first compound 0.02 µM): 0.13
- relative viability (A-427; first compound 0.0002 µM): 0.987
- relative viability (A-427; first compound 0.000632 µM): 0.926
- relative viability (A-427; first compound 0.002 µM): 0.641
- relative viability (A-427; first compound 0.006325 µM): 0.26
- relative viability (A-427; first compound 0.02 µM): 0.181
- relative viability (LCLC-97TM1; first compound 0.000632 µM): 0.498
- relative viability (LCLC-97TM1; first compound 0.002 µM): 0.145
- relative viability (LCLC-97TM1; first compound 0.006325 µM): 0.168
- relative viability (LCLC-97TM1; first compound 0.02 µM): 0.11
- relative viability (NCI-H1944; first compound 0.0002 µM): 1.07
- relative viability (NCI-H1944; first compound 0.000632 µM): 1.05
- relative viability (NCI-H1944; first compound 0.002 µM): 0.942
- relative viability (NCI-H1944; first compound 0.006325 µM): 0.297
- relative viability (NCI-H1944; first compound 0.02 µM): 0.155
- relative viability (NCI-H727; first compound 0.0002 µM): 0.488
- relative viability (NCI-H727; first compound 0.000632 µM): 0.442
- relative viability (NCI-H727; first compound 0.002 µM): 0.308
- relative viability (NCI-H727; first compound 0.02 µM): 0.149
- relative viability (PC-3 [JPC-3]; first compound 0.0002 µM): 0.82
- relative viability (PC-3 [JPC-3]; first compound 0.000632 µM): 0.721
- relative viability (PC-3 [JPC-3]; first compound 0.002 µM): 0.527
- relative viability (PC-3 [JPC-3]; first compound 0.006325 µM): 0.229
- relative viability (PC-3 [JPC-3]; first compound 0.02 µM): 0.202
- relative viability (H3255; first compound 0.0002 µM): 0.399
- relative viability (H3255; first compound 0.000632 µM): 0.46
- relative viability (H3255; first compound 0.002 µM): 0.181
- relative viability (H3255; first compound 0.006325 µM): 0.141
- relative viability (H3255; first compound 0.02 µM): 0.102
- relative viability (NCI-H1651; first compound 0.0002 µM): 1.18
- relative viability (NCI-H1651; first compound 0.000632 µM): 0.968
- relative viability (NCI-H1651; first compound 0.002 µM): 0.233
- relative viability (NCI-H1651; first compound 0.006325 µM): 0.0921
- relative viability (NCI-H1651; first compound 0.02 µM): 0.0627
- relative viability (LC-2-ad; first compound 0.0002 µM): 0.237
- relative viability (LC-2-ad; first compound 0.000632 µM): 0.18
- relative viability (LC-2-ad; first compound 0.002 µM): 0.114
- relative viability (LC-2-ad; first compound 0.006325 µM): 0.0942
- relative viability (LC-2-ad; first compound 0.02 µM): 0.0914
